In publication PMC11016761, “Production of Mono-Hydroxylated Derivatives of Terpinen-4-ol by Bacterial CYP102A1 Enzymes” (Journal of Microbiology and Biotechnology, 2023) one finds Kd data, which are given here for one molecule.

The target of the test is CYP102A1 (Priestia megaterium, UniProt P14779, E144G/E268V/F82I/F88V/L189Q/N214S/R48L). Nature of the test: UV-visible spectral binding titration (type II shift); also turnover by HPLC with NADPH-generating system (Km […]).
Sequence of CYP102A1 (P14779 whole entry R48L/F82I/F88V/E144G/L189Q/N214S/E268V): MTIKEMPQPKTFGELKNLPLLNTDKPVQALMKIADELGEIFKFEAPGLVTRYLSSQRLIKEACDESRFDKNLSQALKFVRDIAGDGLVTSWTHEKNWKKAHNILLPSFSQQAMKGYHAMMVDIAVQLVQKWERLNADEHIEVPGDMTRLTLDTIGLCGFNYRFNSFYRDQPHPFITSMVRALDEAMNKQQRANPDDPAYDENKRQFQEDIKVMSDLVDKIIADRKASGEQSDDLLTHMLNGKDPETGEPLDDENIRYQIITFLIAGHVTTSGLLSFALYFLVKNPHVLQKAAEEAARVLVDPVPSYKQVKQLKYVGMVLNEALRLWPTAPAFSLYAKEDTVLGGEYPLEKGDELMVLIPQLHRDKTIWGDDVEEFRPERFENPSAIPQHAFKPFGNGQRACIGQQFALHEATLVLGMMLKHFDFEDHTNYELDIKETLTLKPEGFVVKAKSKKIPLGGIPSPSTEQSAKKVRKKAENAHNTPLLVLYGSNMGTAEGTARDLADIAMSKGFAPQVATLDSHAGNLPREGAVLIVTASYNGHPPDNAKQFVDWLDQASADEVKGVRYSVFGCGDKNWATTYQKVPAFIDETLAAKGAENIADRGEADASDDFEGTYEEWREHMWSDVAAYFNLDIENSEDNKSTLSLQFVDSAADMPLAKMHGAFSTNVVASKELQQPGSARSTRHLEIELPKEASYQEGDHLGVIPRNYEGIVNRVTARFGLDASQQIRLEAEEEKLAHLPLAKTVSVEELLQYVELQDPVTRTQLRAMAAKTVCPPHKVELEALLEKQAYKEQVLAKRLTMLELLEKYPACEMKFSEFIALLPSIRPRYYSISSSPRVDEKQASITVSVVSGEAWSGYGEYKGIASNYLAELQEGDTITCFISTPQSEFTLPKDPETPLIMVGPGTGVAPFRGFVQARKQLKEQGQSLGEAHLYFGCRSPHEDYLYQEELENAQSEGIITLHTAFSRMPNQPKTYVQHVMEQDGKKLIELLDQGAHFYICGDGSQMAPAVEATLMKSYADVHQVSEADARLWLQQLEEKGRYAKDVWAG

Regarding `CC1=CCC(O)(C(C)C)CC1` (racemic) [terpinen-4-ol], the Kd was found to be 920 ± 260 nM.

By Kd is commonly meant the constant that tells how readily two partners part at equilibrium.
